# Source: publication PMC7589200, “Identification of Putative Non-Substrate-Based XT-I Inhibitors by Natural Product Library Screening” (Biomolecules, 2020)
# Read-outs that look alike come from different tables or passages of the source.
# Key:
# recombinant human XT-I = molecular target: T1, recombinant human XT-I (Homo sapiens, UniProt Q86Y38); assay: NP library inhibitor screening, UPLC/ESI-MS/MS XT-I assay; type: biochemical
# T1 sequence (Q86Y38 252-959 limits assumed): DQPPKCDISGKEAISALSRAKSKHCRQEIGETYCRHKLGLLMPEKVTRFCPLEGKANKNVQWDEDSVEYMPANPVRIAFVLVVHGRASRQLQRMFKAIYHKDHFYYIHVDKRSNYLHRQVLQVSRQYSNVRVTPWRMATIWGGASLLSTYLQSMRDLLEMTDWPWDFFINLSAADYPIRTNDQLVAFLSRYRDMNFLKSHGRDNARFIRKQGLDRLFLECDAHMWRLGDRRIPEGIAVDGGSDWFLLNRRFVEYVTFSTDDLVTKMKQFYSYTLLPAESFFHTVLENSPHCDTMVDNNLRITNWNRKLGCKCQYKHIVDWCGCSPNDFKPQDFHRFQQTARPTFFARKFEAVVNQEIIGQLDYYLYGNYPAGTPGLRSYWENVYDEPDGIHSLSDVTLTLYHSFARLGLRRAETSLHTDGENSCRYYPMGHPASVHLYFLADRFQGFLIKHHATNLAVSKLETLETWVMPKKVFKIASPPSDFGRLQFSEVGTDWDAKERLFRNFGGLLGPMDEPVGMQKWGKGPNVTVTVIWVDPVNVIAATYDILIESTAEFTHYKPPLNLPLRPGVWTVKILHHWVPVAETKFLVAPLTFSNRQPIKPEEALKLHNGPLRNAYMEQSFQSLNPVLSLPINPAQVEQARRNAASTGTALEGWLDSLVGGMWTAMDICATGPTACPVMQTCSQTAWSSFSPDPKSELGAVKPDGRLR
# XYLT1 mRNA expression = XYLT1 mRNA expression in NHDFs by qRT-PCR; type: cell-based, human; conditions: TGF-β1 5 μg/L, 48 h
# Description: (§1) A former established cell culture model was utilized to investigate the effect of putative XT-I inhibitors on NHDFs. The inhibition studies were carried out with final inhibitor concentrations of 0.5, 1.0, 2.0 or 4.0 μM diluted in fully supplemented DMEM. In brief, unless otherwise stated, NHDFs were cultivated with a low density of 50 cells per mm^2 on a hard tissue culture substrate (100 × 20 mm dish) in fully supplemented DMEM with or without additional TGF-β1 (5 μg/L) for 24 h, promoting their transdifferentiation into proto-myofibroblasts. Thereafter, cells were treated with celastrol or amphotericin B in the presence or absence of TGF-β1 (5 μg/L) for an additional 48 h. Negative controls treated with solvent only were included for every sampling time. The final DMSO content of 0.04% (v/v) was kept constant in all inhibition experiments. […]
# (§2) The RNA extraction from cell lysates and cDNA synthesis for mRNA and miRNA expression analysis were performed as described previously.
# (§3) Quantitative real-time polymerase chain reaction (qRT-PCR) analysis using a LightCycler 480 Instrument II system (Roche, Basel, Swiss) was performed as previously described. The qRT-PCR experiments were conducted with three biological and three technical replicates per donor-derived primary cell culture, unless otherwise stated. The intron-spanning primer sequences used are listed in [7] and Table 1. The geometric mean of the expression levels of the housekeeping genes SDHA, RPL13A and B2M were calculated for expression normalization. The relative target gene mRNA expressions were determined by the ΔΔCT method considering the PCR efficiency. All normalized gene expression levels shown were referred to the respective target gene expression of one primary cell culture sample for the relative comparison of multiple biological samples per experiment and figures.
# XYLT2 mRNA expression = XYLT2 mRNA expression in NHDFs by qRT-PCR; type: cell-based, human; conditions: TGF-β1 (5 μg/L) supplementation, 48 h
# Description: (§4) A former established cell culture model was utilized to investigate the effect of putative XT-I inhibitors on NHDFs. The inhibition studies were carried out with final inhibitor concentrations of 0.5, 1.0, 2.0 or 4.0 μM diluted in fully supplemented DMEM. In brief, unless otherwise stated, NHDFs were cultivated with a low density of 50 cells per mm^2 on a hard tissue culture substrate (100 × 20 mm dish) in fully supplemented DMEM with or without additional TGF-β1 (5 μg/L) for 24 h, promoting their transdifferentiation into proto-myofibroblasts. Thereafter, cells were treated with celastrol or amphotericin B in the presence or absence of TGF-β1 (5 μg/L) for an additional 48 h. Negative controls treated with solvent only were included for every sampling time. The final DMSO content of 0.04% (v/v) was kept constant in all inhibition experiments.
# as §2, §3
# TGFB1 mRNA expression = TGFB1 mRNA expression in NHDFs by qRT-PCR; type: cell-based, human; conditions: TGF-β1 5 μg/L, 48 h
# Description: as §4, §2
# (§5) Quantitative real-time polymerase chain reaction (qRT-PCR) analysis using a LightCycler 480 Instrument II system (Roche, Basel, Swiss) was performed as previously described. […] The geometric mean of the expression levels of the housekeeping genes SDHA, RPL13A and B2M were calculated for expression normalization. The relative target gene mRNA expressions were determined by the ΔΔCT method considering the PCR efficiency. […]
# SMAD7 mRNA expression = SMAD7 mRNA expression in NHDFs by qRT-PCR; type: cell-based, human; conditions: TGF-β1 5 μg/L, 48 h
# Description: as §1, §5
# miRNA-21 = miRNA-21 expression in NHDFs, TaqMan advanced miRNA assay; type: cell-based, human; conditions: TGF-β1 5 µg/L, 48 h, serum-starved NHDFs
# Description: as §2
# The TaqMan advanced miRNA Assay (Thermo Fisher Scientific; Waltham, Massachusetts, United States) was performed, according to the manufacturer’s instructions, for the miRNA expression analyses. The primer assays miRNA-21 (477975_mir) and miRNA-191 (477952_mir) were used. The expression level of miRNA-21 determined was normalized to internal housekeeping gene expression of miRNA-191 via the ΔΔCT method.
# [1] = Table S1, 50 μM inhibitor, relative to negative control containing DMSO, technical duplicates
# [2] = Table 2, 50 μM inhibitor, relative to control (DMSO = 100%), technical duplicates
Molecule,XT-I Activity [%] (recombinant human XT-I; [1]),remaining activity at 50 µM (recombinant human XT-I; [1]) [%],further results
"O=c1[nH]cc(F)c(=O)[nH]1 [Compound 78, Fluorouracil (5-Fluoracil, 5-FU)]",137,,
"C/C(=C\c1csc(C)n1)[C@@H]1C[C@@H]2O[C@@H]2CCC[C@H](C)[C@H](O)[C@@H](C)C(=O)C(C)(C)[C@@H](O)CC(=O)O1 [Compound 79, Epothilone A]",,119,
"CCCCCCCCCC(=O)N[C@@H](Cc1c[nH]c2ccccc12)C(=O)N[C@H](CC(N)=O)C(=O)N[C@@H](CC(=O)O)C(=O)N[C@@H]1C(=O)NCC(=O)N[C@@H](CCCN)C(=O)N[C@@H](CC(=O)O)C(=O)N[C@H](C)C(=O)N[C@@H](CC(=O)O)C(=O)NCC(=O)N[C@H](CO)C(=O)N[C@@H]([C@H](C)CC(=O)O)C(=O)N[C@@H](CC(=O)c2ccccc2N)C(=O)O[C@@H]1C [Compound 80, Daptomycin]",,86,
"N[C@@H](C(=O)N[C@@H]1C(=O)N2C(C(=O)O)=C(Cl)CS[C@H]12)c1ccccc1 [Compound 81, Cefaclor]",,71,
"COc1cnc(NS(=O)(=O)c2ccc(N)cc2)nc1 [Compound 82, Sulfameter]",,126,
"C[C@]12CC[C@@H]3c4ccc(O)cc4CC[C@H]3[C@@H]1CCC2=O [Compound 83, Estrone]",,120,
"C[C@]12CC[C@@H]3c4ccc(O)cc4CC[C@H]3[C@@H]1CC[C@@H]2O [Compound 84, Estradiol]",,128,
"CCc1cc(C(N)=S)ccn1 [Compound 85, Ethionamide]",,130,
"COc1cc(/C=C/C(=O)CC(=O)/C=C/c2ccc(O)c(OC)c2)ccc1O [Compound 86, Curcumin]",,43,XT-I Activity [%] (recombinant human XT-I; [2]): 43%
"Clc1ccc(C(Cn2ccnc2)OCc2ccsc2Cl)c(Cl)c1 (stereo not drawn) [Compound 87, Tioconazole]",,136,
"Clc1ccc(COC(Cn2ccnc2)c2ccc(Cl)cc2Cl)c(Cl)c1 (stereo not drawn) [Compound 88, Miconazole Nitrate]",,149,
"Cc1nnc(NS(=O)(=O)c2ccc(N)cc2)s1 [Compound 89, Sulfamethizole]",,111,
"CC1(C)[C@H](C(=O)O)N2C(=O)C[C@H]2S1(=O)=O [Compound 90, Sulbactam]",,138,
"COc1cc(NS(=O)(=O)c2ccc(N)cc2)nc(OC)n1 [Compound 91, Sulphadimethoxine]",132,,
"Cl.N=c1ccn2c(n1)O[C@H]1[C@H](O)[C@@H](CO)O[C@H]12 [Compound 92, Cyclocytidine HCl]",142,,
"Cl.Nc1ncnc2nc[nH]c12 [Compound 93, Adenine HCl]",146,,
"COc1cc(CNC(=O)CCCC/C=C/C(C)C)ccc1O [Compound 94, Capsaicin (Vanilloid)]",,,XT-I Activity [%] (recombinant human XT-I): 135%
"C[C@@H]1C(=O)O[C@H]2C[C@@]34[C@H]5C[C@@H](C(C)(C)C)[C@]36[C@@H](OC(=O)[C@@H]6O)O[C@@]4(C(=O)O5)[C@]21O [Compound 95, Ginkgolide A]",,150,
Bleomycin sulfate [Compound 96],149,,
Ginkgolide B [Compound 69],100,,
Oxytetracycline (Terramycin) [Compound 74],17,,XT-I Activity [%] (recombinant human XT-I; [2]): 17%
"TGF-β1: Recombinant human TGF-β1, pro-fibrotic mediator used to stimulate fibroblasts",,,increase in XYLT1 mRNA expression relative to untreated control (XYLT1 mRNA expression; Figure 5A–D): 3.7 ± 0.3 fold; increase in XYLT1 mRNA expression relative to untreated control (XYLT1 mRNA expression; Figure 5E): 4.6 ± 0.2 fold; XYLT2 mRNA expression level (XYLT2 mRNA expression): unaffected; TGFB1 mRNA expression (autoinduction) relative to control (TGFB1 mRNA expression): 1.1 ± 0.08 fold; SMAD7 mRNA expression relative to control (SMAD7 mRNA expression): 1.8 ± 0.2 fold; miRNA-21 expression relative to untreated (miRNA-21): 2.5 ± 0.2 fold
Vitamin B12 [Compound 65],94,,
